Patent publication US20250163484A1, “Methods for Incorporating Azido Groups in Bacterial Capsular Polysaccharides” (PFIZER INC., priority 2022, published 2025)
Several values for one entry are separate records, joined by “and”; a condition that tells them apart may be missing. Equal values may be shown once. Read-outs that look alike come from different tables or passages of the source.

System: S. pneumoniae T14 capsule polysaccharide
Type: cell-based, Streptococcus pneumoniae serotype 14
Experimental: FIGS. 1A-1D. Screen for azido sugar incorporation into S. pneumoniae T14 capsule polysaccharide. […] Bacteria were grown until the ΔOD600≥0 for >30 minutes, then lysed with 0.1% NLS for 30 minutes. Growth was measured offline using a spectrophotometer blanked with PBS at 600 nm. (FIG. 1A) azido incorporation into polysaccharide was then quantified via fluorescent labeling (FL) with normalization to refractive index (RI). MaxOD and End Of Fermentation time (EOF) are provided in (FIG. 1B) and (FIG. 1C), respectively. Polysaccharide was extracted using EtOH and CaCl2 and analyzed via SEC-RI for (FIG. 1D) polysaccharide titer. n=1-4, error bars=+/−StDev.
A SEC fluorescence and Refractive index assay (SEC-FL/RI) was used for azide measurement to confirm the incorporation of azide modification.
Click-It Cell Reaction Buffer kit and Alexa Fluor 488 Alkyne were purchased from Invitrogen.
The initial procedure when running the SEC-FL/RI was to prepare the sample to a target concentration of 0.01 mg/m by mixing a pre-diluted polysaccharide to the final target concentration with the Click Reaction mixture. The reaction mixture consisted of 2.67 mM CuSO4, 2.67 mg/mL cell additive reagent, and 20 uM Alexa Fluor Alkyne. This was mixed with the sample at a 3:1 ratio of reaction mixture to sample and incubated in the absence of light. Reactions were transferred to HPLC vials and ran on the SEC-FL/RI HPLC setup. The RI detector (RID) allowed for detection of the polysaccharide while the Fluorescence Detector (FLD) was used to determine the level of fluor incorporated into the polysaccharide sample. The ratio of the two peak areas gave a measurement for the amount of azide incorporated to the polysaccharide.
Later, in addition to the incubation of the sample for thirty minutes, a buffer exchange step was added that washed out the unreacted fluor as well as the reaction matrix reagents in order to improve the baselines of the FLD and RID during the HPLC run. This added greater resolution of the peak associated with the azide functionalized polysaccharide. The assay was useful for relative quantitation of azide incorporation into the polysaccharide but could not quantify an exact numerical concentration. To improve this aspect work was undertaken to use a polysaccharide with known levels of azido functionalization to make a standard curve that varied the % Azido while keeping the polysaccharide mass the same. This was done by mixing the known azido modified poly (polysaccharide) with specific amounts of native (unmodified) polysaccharide. A strong linear fit for the generated standard curve was seen.
The values for percent azide were able to be converted to a μM azide per mM polysaccharide by converting from % azide using the constant polysaccharide concentration.

`[N-]=[N+]=N[C@@H](C=O)[C@@H](O)[C@H](O)[C@H](O)CO` [2AzGlc, 2-Azido-2-deoxy-D-glucose] was tested, and the “increase between lowest and higher FL/RI achieved” value (2AzGlc titration 1-60 mM, production media + Glucose (dextrose, 30 g/L)) was 10 fold, the FL/RI (azido feed DOE: Gal 30 g/L, initial 2AzGlc 0 mM, 2AzGlc feed stock 4 mM, pH 7.33, 300 rpm) was 101.45 and 103.61 and the FL/RI (azido feed DOE: Gal 30 g/L, initial 2AzGlc 0 mM, 2AzGlc feed stock 6.5 mM, pH 7.33, 300 rpm) was 113.82 and 121.9. For the same molecule, the FL/RI (azido feed DOE: Gal 30 g/L, initial 2AzGlc 0.1 mM, 2AzGlc feed stock 4 mM, pH 7.33, 300 rpm) was 116.16 and 116.31, the FL/RI (azido feed DOE: Gal 30 g/L, initial 2AzGlc 0.1 mM, 2AzGlc feed stock 6.5 mM, pH 7.33, 300 rpm) was 84.53 and 83.69 and the FL/RI (azido feed DOE: Gal 40 g/L, initial 2AzGlc 0 mM, 2AzGlc feed stock 4 mM, pH 7.33, 300 rpm) was 97.04 and 114.22. The FL/RI (azido feed DOE: Gal 40 g/L, initial 2AzGlc 0 mM, 2AzGlc feed stock 6.5 mM, pH 7.33, 300 rpm) was 122.7 and 110.09, the FL/RI (azido feed DOE: Gal 40 g/L, initial 2AzGlc 0.1 mM, 2AzGlc feed stock 4 mM, pH 7.33, 300 rpm) was 125.02 and 122.41 and the FL/RI (azido feed DOE: Gal 40 g/L, initial 2AzGlc 0.1 mM, 2AzGlc feed stock 6.5 mM, pH 7.33, 300 rpm) was 79.3 and 63.19. For the same molecule, the FL/RI (fed-batch, initial galactose 5.0 g/L, 0.25 mM 2AzGlc, galactose feed rate FR #1) was 45, the FL/RI (fed-batch, initial galactose 5.0 g/L, 0.25 mM 2AzGlc, galactose feed rate FR #2) was 18 and the “average FL/RI” value (initial galactose 40 g/L, initial 2AzGlc 0.1 mM, 4.0 mM 2AzGlc feed stock) was 123.7. For the same molecule, the FL/RI (production media + 2AzGlc (10 mM), pH 6.33, agitation 100 rpm) was 91.9 and 100.7, the FL/RI (production media + 2AzGlc (10 mM), pH 6.33, agitation 300 rpm) was 98.3 and 97.5 and the FL/RI (production media + 2AzGlc (10 mM), pH 6.66, agitation 200 rpm) was 114.5 and 135.0. For the same molecule, the FL/RI (production media + 2AzGlc (10 mM), pH 7, agitation 100 rpm) was 117.8 and 118.8, the FL/RI (production media + 2AzGlc (10 mM), pH 7, agitation 300 rpm) was 115.7 and 107.5 and the FL/RI (production media + 2AzGlc (10 mM), pH 7.33, agitation 100 rpm) was 137.4 and 158.3. The FL/RI (production media + 2AzGlc (10 mM), pH 7.33, agitation 200 rpm) was 140.8 and 125.0, the FL/RI (production media + 2AzGlc (10 mM), pH 7.33, agitation 300 rpm) was 113.9 and 137.3 and the FL/RI (production media + Glucose (dextrose, 30 g/L), media pH 7, 2AzGlc 1 mM) was 15. For the same molecule, the FL/RI (production media + Glucose (dextrose, 30 g/L), media pH 7, 2AzGlc 5 mM) was 61, the FL/RI (production media + Glucose (dextrose, 30 g/L), media pH 7, 2AzGlc 10 mM) was 118 and the FL/RI (production media + Glucose (dextrose, 30 g/L), media pH 7, 2AzGlc 20 mM) was 146. The FL/RI (production media + Glucose (dextrose, 30 g/L), media pH 7.33, 2AzGlc 20 mM) was 148, the FL/RI (production media + Glucose (dextrose, 30 g/L), media pH 7.33, 2AzGlc 40 mM) was 157 and the FL/RI (production media + Glucose (dextrose, 30 g/L), media pH 7.33, 2AzGlc 60 mM) was 151. The FL/RI (production medium + Galactose (30 g/L) + 2AzGlc (0.25 mM), pH 6.33, agitation 100 rpm) was 51.73 and 50.26, the FL/RI (production medium + Galactose (30 g/L) + 2AzGlc (0.25 mM), pH 6.33, agitation 200 rpm) was 48.41 and the FL/RI (production medium + Galactose (30 g/L) + 2AzGlc (0.25 mM), pH 6.33, agitation 300 rpm) was 45.24 and 44.39. It also gave an FL/RI (production medium + Galactose (30 g/L) + 2AzGlc (0.25 mM), pH 6.66, agitation 100 rpm) of 78.29, an FL/RI (production medium + Galactose (30 g/L) + 2AzGlc (0.25 mM), pH 6.66, agitation 300 rpm) of 77.94 and an FL/RI (production medium + Galactose (30 g/L) + 2AzGlc (0.25 mM), pH 7, agitation 200 rpm) of 97.25. For the same molecule, the FL/RI (production medium + Galactose (30 g/L) + 2AzGlc (0.25 mM), pH 7.33, agitation 100 rpm) was 101.26 and 88.76, the FL/RI (production medium + Galactose (30 g/L) + 2AzGlc (0.25 mM), pH 7.33, agitation 300 rpm) was 110 and 109.76 and 110.12 and the FL/RI (screen, azido sugar 1 mM, production medium + Glucose (dextrose, 30 g/L)) was “detectable”.
